Where two headings read alike, the source gives them in different places.
Molecular target: T1, SMARCA2 (Homo sapiens, UniProt P51531)
T1 construct: endogenous in cells
Assay: SMARCA2 HiBiT degradation assay (cellular)
Assay type: cell-based
Conditions: for DC50: read-out: HiBit A549 SMARCA2 IP

[1] = A549, Emax = amount of residual protein remaining in the cell following compound treatment
[2] = SMARCA2 HiBiT cells, luminescence readout, 11-point titration from 10 μM, 6 hours or 16 hours

T1 sequence (P51531 whole entry): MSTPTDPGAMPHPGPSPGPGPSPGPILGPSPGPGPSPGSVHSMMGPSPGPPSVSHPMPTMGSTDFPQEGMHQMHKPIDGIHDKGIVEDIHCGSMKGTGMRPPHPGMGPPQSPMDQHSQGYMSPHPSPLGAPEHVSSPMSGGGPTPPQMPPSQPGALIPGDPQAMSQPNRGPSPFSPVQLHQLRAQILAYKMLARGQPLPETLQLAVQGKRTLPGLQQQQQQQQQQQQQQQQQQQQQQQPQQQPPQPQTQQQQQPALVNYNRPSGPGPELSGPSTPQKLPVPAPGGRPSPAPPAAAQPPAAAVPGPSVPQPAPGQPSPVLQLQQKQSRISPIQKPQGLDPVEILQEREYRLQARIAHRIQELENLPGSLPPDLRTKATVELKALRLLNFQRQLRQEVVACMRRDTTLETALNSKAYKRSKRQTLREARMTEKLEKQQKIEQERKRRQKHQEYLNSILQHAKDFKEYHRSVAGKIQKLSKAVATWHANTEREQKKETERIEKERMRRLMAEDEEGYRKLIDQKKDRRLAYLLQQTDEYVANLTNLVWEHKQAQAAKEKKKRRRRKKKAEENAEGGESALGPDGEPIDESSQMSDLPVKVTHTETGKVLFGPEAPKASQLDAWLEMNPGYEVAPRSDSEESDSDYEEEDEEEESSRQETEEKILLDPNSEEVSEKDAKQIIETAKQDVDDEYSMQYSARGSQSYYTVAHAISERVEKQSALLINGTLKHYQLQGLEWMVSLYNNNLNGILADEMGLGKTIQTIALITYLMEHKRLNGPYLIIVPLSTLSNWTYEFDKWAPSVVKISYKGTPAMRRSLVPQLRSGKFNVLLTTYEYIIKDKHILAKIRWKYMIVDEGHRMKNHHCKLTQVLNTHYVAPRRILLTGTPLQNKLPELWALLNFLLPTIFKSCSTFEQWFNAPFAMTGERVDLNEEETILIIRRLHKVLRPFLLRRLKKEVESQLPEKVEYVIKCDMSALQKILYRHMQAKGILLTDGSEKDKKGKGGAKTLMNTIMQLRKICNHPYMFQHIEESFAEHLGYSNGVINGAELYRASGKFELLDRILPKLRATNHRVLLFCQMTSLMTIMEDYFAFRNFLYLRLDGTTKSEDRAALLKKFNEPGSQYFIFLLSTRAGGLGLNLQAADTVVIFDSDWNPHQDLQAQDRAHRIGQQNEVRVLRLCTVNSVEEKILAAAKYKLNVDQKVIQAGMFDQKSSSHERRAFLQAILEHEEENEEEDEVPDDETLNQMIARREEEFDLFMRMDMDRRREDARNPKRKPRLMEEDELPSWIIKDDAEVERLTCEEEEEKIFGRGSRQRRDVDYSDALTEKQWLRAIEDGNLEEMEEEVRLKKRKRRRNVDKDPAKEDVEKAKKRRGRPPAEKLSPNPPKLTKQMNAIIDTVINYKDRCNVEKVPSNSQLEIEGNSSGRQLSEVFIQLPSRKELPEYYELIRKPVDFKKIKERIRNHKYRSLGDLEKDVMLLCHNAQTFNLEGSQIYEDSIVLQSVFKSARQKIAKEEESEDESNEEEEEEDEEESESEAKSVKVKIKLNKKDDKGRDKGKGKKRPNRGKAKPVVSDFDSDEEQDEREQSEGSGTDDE

Row | Structure (SMILES) | Emax [1] | DC50 [2] | Emax (A549, different HIBIT SMARCA2 clone (footnote a), residual protein remaining) | DC50 (different HIBIT SMARCA2 clone (footnote a))
1 | Cc1ncsc1-c1ccc([C@H](C)NC(=O)[C@@H]2C[C@@H](O)CN2C(=O)[C@@H](NC(=O)CCCCCC(=O)N2CCN(c3ccc(CN4CCCC(Oc5cc(-c6ccccc6O)nnc5N)C4)cc3)CC2)C(C)(C)C)cc1 (mixture of isomers) [Example 40, rac-(2S,4R)-4-hydroxy-1-[rac-(2S)-2-[[7-[4-[4-[[3-[3-amino-6-(2-hydroxyphenyl)pyridazin-4-yl]oxy-1-piperidyl]methyl]phenyl]piperazin-1-yl]-7-oxo-heptanoyl]amino]-3,3-dimethyl-butanoyl]-N-[rac-(1S)-1-[4-(4-methylthiazol-5-yl)phenyl]ethyl]pyrrolidine-2-carboxamide] | 46% | 349 nM | – | –
2 | Cc1ncsc1-c1ccc([C@H](C)NC(=O)[C@@H]2C[C@@H](O)CN2C(=O)[C@@H](NC(=O)CCCCCCCCCCCCC(=O)N2CCOC3(CCN(c4cc(-c5ccccc5O)nnc4N)CC3)C2)C(C)(C)C)cc1 [Example 45, (2S,4R)-1-[(2S)-2-[[14-[9-[3-amino-6-(2-hydroxyphenyl)pyridazin-4-yl]-1-oxa-4,9-diazaspiro[5.5]undecan-4-yl]-14-oxo-tetradecanoyl]amino]-3,3-dimethyl-butanoyl]-4-hydroxy-N-[(1S)-1-[4-(4-methylthiazol-5-yl)phenyl]ethyl]pyrrolidine-2-carboxamide] | 33% | 120 nM | – | –
3 | Cc1ncsc1-c1ccc([C@H](C)NC(=O)[C@@H]2C[C@@H](O)CN2C(=O)[C@@H](NC(=O)CCCCCCCCCCC(=O)N2CCOC3(CCN(c4cc(-c5ccccc5O)nnc4N)CC3)C2)C(C)(C)C)cc1 [Example 44, (2S,4R)-1-[(2S)-2-[[12-[9-[3-amino-6-(2-hydroxyphenyl)pyridazin-4-yl]-1-oxa-4,9-diazaspiro[5.5]undecan-4-yl]-12-oxo-dodecanoyl]amino]-3,3-dimethyl-butanoyl]-4-hydroxy-N-[(1S)-1-[4-(4-methylthiazol-5-yl)phenyl]ethyl]pyrrolidine-2-carboxamide] | 21% | 205 nM | – | –
4 | Cc1ncsc1-c1ccc(CNC(=O)[C@@H]2C[C@H](O)CN2C(=O)[C@@H](NC(=O)CCCCCC(=O)N2CCC(Cc3cccc(N4C5CCC4CN(c4cc(-c6ccccc6O)nnc4N)C5)c3)CC2)C(C)(C)C)cc1 [Example 14, (2S,4S)-1-[(2S)-2-[[7-[4-[[3-[3-[3-amino-6-(2-hydroxyphenyl)pyridazin-4-yl]-3,8-diazabicyclo[3.2.1]octan-8-yl]phenyl]methyl]-1-piperidyl]-7-oxo-heptanoyl]amino]-3,3-dimethyl-butanoyl]-4-hydroxy-N-[[4-(4-methylthiazol-5-yl)phenyl]methyl]pyrrolidine-2-carboxamide] | 38% | 995 nM | – | –
5 | Cc1ncsc1-c1ccc(CNC(=O)[C@@H]2C[C@@H](O)CN2C(=O)[C@@H](NC(=O)CCCCCCCCC(=O)N2CCN(Cc3cccc(N4C5CCC4CN(c4cc(-c6cc(F)ccc6O)nnc4N)C5)c3)CC2)C(C)(C)C)cc1 [Example 107, (2S,4R)-1-[(2S)-2-[[10-[4-[[3-[3-[3-amino-6-(5-fluoro-2-hydroxy-phenyl)pyridazin-4-yl]-3,8-diazabicyclo[3.2.1]octan-8-yl]phenyl]methyl]piperazin-1-yl]-10-oxo-decanoyl]amino]-3,3-dimethyl-butanoyl]-4-hydroxy-N-[[4-(4-methylthiazol-5-yl)phenyl]methyl]pyrrolidine-2-carboxamide] | – | – | 18% | 82 nM
6 | Cc1ncsc1-c1ccc([C@H](C)NC(=O)[C@@H]2C[C@@H](O)CN2C(=O)[C@@H](NC(=O)CCCCCC(=O)N2CCOC3(CCN(c4cc(-c5ccccc5O)nnc4N)CC3)C2)C(C)(C)C)cc1 [Example 43, (2S,4R)-1-[(2S)-2-[[7-[9-[3-amino-6-(2-hydroxyphenyl)pyridazin-4-yl]-1-oxa-4,9-diazaspiro[5.5]undecan-4-yl]-7-oxo-heptanoyl]amino]-3,3-dimethyl-butanoyl]-4-hydroxy-N-[(1S)-1-[4-(4-methylthiazol-5-yl)phenyl]ethyl]pyrrolidine-2-carboxamide] | 23% | 749 nM | – | –
7 | Cc1ncsc1-c1ccc(CNC(=O)[C@@H]2C[C@@H](O)CN2C(=O)[C@@H](NC(=O)CCCCCCCCC(=O)N2CCN(Cc3cccc(CN4C5CCC4CN(c4cc(-c6ccccc6O)nnc4N)C5)c3)CC2)C(C)(C)C)cc1 [Example 29, (2S,4R)-1-[(2S)-2-[[10-[4-[[3-[[3-[3-amino-6-(2-hydroxyphenyl)pyridazin-4-yl]-3,8-diazabicyclo[3.2.1]octan-8-yl]methyl]phenyl]methyl]piperazin-1-yl]-10-oxo-decanoyl]amino]-3,3-dimethyl-butanoyl]-4-hydroxy-N-[[4-(4-methylthiazol-5-yl)phenyl]methyl]pyrrolidine-2-carboxamide] | 30% | 1110 nM | – | –
8 | Cc1ncsc1-c1ccc([C@H](C)NC(=O)[C@@H]2C[C@@H](O)CN2C(=O)[C@@H](NC(=O)CCCCCCCCCCC(=O)N2CCN(CCOc3ccc(N4CCCC(Oc5cc(-c6ccccc6O)nnc5N)C4)cc3)CC2)C(C)(C)C)cc1 (mixture of isomers) [Example 79, rac-(2S,4R)-4-hydroxy-1-[rac-(2S)-2-[[12-[4-[2-[4-[3-[3-amino-6-(2-hydroxyphenyl)pyridazin-4-yl]oxy-1-piperidyl]phenoxy]ethyl]piperazin-1-yl]-12-oxo-dodecanoyl]amino]-3,3-dimethyl-butanoyl]-N-[rac-(1S)-1-[4-(4-methylthiazol-5-yl)phenyl]ethyl]pyrrolidine-2-carboxamide] | 21% | 78 nM | – | –
9 | Cc1ncsc1-c1ccc(CNC(=O)[C@@H]2C[C@@H](O)CN2C(=O)[C@@H](NC(=O)CCCCCCCCC(=O)N2CCN(c3cc(-c4ccccc4O)nnc3N)CC2)C(C)(C)C)cc1 [Example 1, (2S,4R)-1-[(2S)-2-[[10-[4-[3-amino-6-(2-hydroxyphenyl)pyridazin-4-yl]piperazin-1-yl]-10-oxo-decanoyl]amino]-3,3-dimethyl-butanoyl]-4-hydroxy-N-[[4-(4-methylthiazol-5-yl)phenyl]methyl]pyrrolidine-2-carboxamide] | 52% | 2780 nM | – | –
10 | Cc1ncsc1-c1ccc(CNC(=O)[C@@H]2C[C@@H](O)CN2C(=O)[C@@H](NC(=O)CCCCCCCCC(=O)N2CCN(CCOc3cccc(N4C5CCC4CN(c4cc(-c6ccccc6O)nnc4N)C5)c3)CC2)C(C)(C)C)cc1 [Example 10, (2S,4R)-1-[(2S)-2-[[10-[4-[2-[3-[3-[3-amino-6-(2-hydroxyphenyl)pyridazin-4-yl]-3,8-diazabicyclo[3.2.1]octan-8-yl]phenoxy]ethyl]piperazin-1-yl]-10-oxo-decanoyl]amino]-3,3-dimethyl-butanoyl]-4-hydroxy-N-[[4-(4-methylthiazol-5-yl)phenyl]methyl]pyrrolidine-2-carboxamide] | 19% | 286 nM | – | –
11 | Cc1ncsc1-c1ccc([C@H](C)NC(=O)[C@@H]2C[C@@H](O)CN2C(=O)[C@@H](NC(=O)CCCCCCCCCCCCC(=O)N2CCN(CCOc3cccc(N4CCCC(Oc5cc(-c6ccccc6O)nnc5N)C4)c3)CC2)C(C)(C)C)cc1 (mixture of isomers) [Example 81, rac-(2S,4R)-4-hydroxy-1-[rac-(2S)-2-[[14-[4-[2-[3-[3-[3-amino-6-(2-hydroxyphenyl)pyridazin-4-yl]oxy-1-piperidyl]phenoxy]ethyl]piperazin-1-yl]-14-oxo-tetradecanoyl]amino]-3,3-dimethyl-butanoyl]-N-[rac-(1S)-1-[4-(4-methylthiazol-5-yl)phenyl]ethyl]pyrrolidine-2-carboxamide] | 34% | 504 nM | – | –
12 | Cc1ncsc1-c1ccc([C@H](C)NC(=O)[C@@H]2C[C@@H](O)CN2C(=O)[C@@H](NC(=O)CCCCCCCCC(=O)N2CCN(c3ccc(CN4CCCC(Oc5cc(-c6ccccc6O)nnc5N)C4)cc3)CC2)C(C)(C)C)cc1 (mixture of isomers) [Example 41, rac-(2S,4R)-4-hydroxy-1-[rac-(2S)-2-[[10-[4-[4-[[3-[3-amino-6-(2-hydroxyphenyl)pyridazin-4-yl]oxy-1-piperidyl]methyl]phenyl]piperazin-1-yl]-10-oxo-decanoyl]amino]-3,3-dimethyl-butanoyl]-N-[rac-(1S)-1-[4-(4-methylthiazol-5-yl)phenyl]ethyl]pyrrolidine-2-carboxamide] | 63% | 204 nM | – | –
13 | Cc1ncsc1-c1ccc(CNC(=O)[C@@H]2C[C@@H](O)CN2C(=O)[C@@H](NC(=O)CCCCCCCCCC(=O)N2CCN(CCOc3cccc(N4CC5CCC(C4)N5c4cc(-c5cc(F)ccc5O)nnc4N)c3)CC2)C(C)(C)C)cc1 [Example 110, (2S,4R)-1-[(2S)-2-[[11-[4-[2-[3-[8-[3-amino-6-(5-fluoro-2-hydroxy-phenyl)pyridazin-4-yl]-3,8-diazabicyclo[3.2.1]octan-3-yl]phenoxy]ethyl]piperazin-1-yl]-11-oxo-undecanoyl]amino]-3,3-dimethyl-butanoyl]-4-hydroxy-N-[[4-(4-methylthiazol-5-yl)phenyl]methyl]pyrrolidine-2-carboxamide] | 76% | 760 nM | – | –
14 | Cc1ncsc1-c1ccc([C@H](C)NC(=O)[C@@H]2C[C@@H](O)CN2C(=O)[C@@H](NC(=O)CCCCCCCCCCCCC(=O)N(C)CC(COc2cc(-c3ccccc3O)nnc2N)c2ccccc2)C(C)(C)C)cc1 (mixture of isomers) [Example 23, N′-[3-[3-amino-6-(2-hydroxyphenyl)pyridazin-4-yl]oxy-2-phenyl-propyl]-N′-methyl-N-[rac-(1S)-2,2-dimethyl-1-[rac-(2S,4R)-4-hydroxy-2-[[rac-(1S)-1-[4-(4-methylthiazol-5-yl)phenyl]ethyl]carbamoyl]pyrrolidine-1-carbonyl]propyl]tetradecanediamide] | 38% | 428 nM | – | –

From patent publication US20230002367A1, “BIFUNCTIONAL COMPOUNDS” (Hoffmann-La Roche Inc., priority 2019, published 2023)
